# Columns and labels:
# HCV NS5B = molecular target: T1, HCV NS5B (Hepatitis C virus genotype 1b, UniProt Q9WMX2); test: HCV NS5B RdRp enzyme assay (preincubation protocol); assay type: biochemical; settings: Table 1, read-out: IC50*
# T1 construct: The protein was expressed with an 18 amino acid C-terminal truncation to enhance the solubility; made in house; host or cells: E. coli BL21 (DE3), pET21a
# Method in brief: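 C-terminally truncated (Δ18) genotype 1b NS5B from E. coli, 14 nM, added to compound, then polyA template (0.2 nM), 3H-UTP (0.29 μM) and oligo-dT12 primer precaptured on streptavidin SPA beads. 4 h at 30 °C, pH 7.5, 2% DMSO; SPA readout; IC50 from seven concentrations by logistic fit.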
# HCV replicon = HCV replicon FRET assay; assay type: cell-based; settings: Hepatitis C virus, Table 1; FRET assay; read-out: EC50*
# Method in brief: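 HCV replicon cells, with or without Renilla luciferase reporter, incubated with titrated compounds at 37 °C; Alamar blue read for cytotoxicity. NS3 protease activity read from lysates with 20 μM EDANS/DABCYL FRET peptide (340/490 nm, kinetic), or by Dual-Glo luciferase. Background from highest protease-inhibitor wells; EC50 = 50% signal reduction.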
# T1 sequence (Q9WMX2 2420-2992): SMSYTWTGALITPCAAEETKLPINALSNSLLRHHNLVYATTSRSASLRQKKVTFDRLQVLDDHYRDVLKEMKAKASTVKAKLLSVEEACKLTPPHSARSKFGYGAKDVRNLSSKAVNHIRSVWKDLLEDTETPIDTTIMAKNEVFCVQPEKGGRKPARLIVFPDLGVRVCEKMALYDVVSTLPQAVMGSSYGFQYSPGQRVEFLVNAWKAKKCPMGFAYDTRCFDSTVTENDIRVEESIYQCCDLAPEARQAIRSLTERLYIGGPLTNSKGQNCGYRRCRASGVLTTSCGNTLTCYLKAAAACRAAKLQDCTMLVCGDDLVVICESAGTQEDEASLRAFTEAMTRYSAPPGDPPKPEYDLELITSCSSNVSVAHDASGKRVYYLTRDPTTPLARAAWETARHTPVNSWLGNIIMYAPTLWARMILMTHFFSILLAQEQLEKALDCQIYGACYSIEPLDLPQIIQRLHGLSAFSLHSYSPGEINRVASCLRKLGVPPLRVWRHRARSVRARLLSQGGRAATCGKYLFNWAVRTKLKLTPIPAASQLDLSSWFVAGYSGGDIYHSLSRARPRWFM
SMILES,IC50 (HCV NS5B) [nM],EC50 (HCV replicon) [nM]
CN(C)S(=O)(=O)NC(=O)c1ccc2c(C3CCCCC3)c3n(c2c1)CC(C(=O)N1CCN(C(=O)OC(C)(C)C)CC1)=Cc1ccccc1-3,10 to 1000,70 to 1000
CN(C)S(=O)(=O)NC(=O)c1ccc2c(C3CCCCC3)c3n(c2c1)CC(C(=O)N1CCNC(=O)C1)=Cc1ccccc1-3,10 to 1000,70 to 1000
CN(C)S(=O)(=O)NC(=O)c1ccc2c(C3CCCCC3)c3n(c2c1)CC(C(=O)N1CCN(S(C)(=O)=O)CC1)=Cc1ccccc1-3,10 to 1000,70 to 1000
CC(=O)N1CCN(C(=O)C2=Cc3ccccc3-c3c(C4CCCCC4)c4ccc(C(=O)NS(=O)(=O)N(C)C)cc4n3C2)CC1,10 to 1000,70 to 1000
CN(C)S(=O)(=O)NC(=O)c1ccc2c(C3CCCCC3)c3n(c2c1)CC(C(=O)N1CCN(c2ccccc2)CC1)=Cc1ccccc1-3,10 to 1000,70 to 1000
Cc1ccc(S(=O)(=O)N2CCN(C(=O)C3=Cc4ccccc4-c4c(C5CCCCC5)c5ccc(C(=O)NS(=O)(=O)N(C)C)cc5n4C3)CC2)cc1,10 to 1000,70 to 1000
CC1CN(C(=O)OC(C)(C)C)CCN1C(=O)C1=Cc2ccccc2-c2c(C3CCCCC3)c3ccc(C(=O)NS(=O)(=O)N(C)C)cc3n2C1 (centres unmarked),10 to 1000,70 to 1000
CC(=O)NC1CCN(C(=O)C2=Cc3ccccc3-c3c(C4CCCCC4)c4ccc(C(=O)O)cc4n3C2)CC1,10 to 1000,70 to 1000
O=C(O)c1ccc2c(C3CCCCC3)c3n(c2c1)CC(C(=O)N1CCC(n2ccnn2)CC1)=Cc1ccccc1-3,10 to 1000,70 to 1000
COC(=O)c1ccc2c(C3CCCCC3)c3n(c2c1)CC(C(=O)N1CCC(N2CCCCC2=O)CC1)Cc1ccccc1-3 (centres unmarked),> 1000,70 to 1000
O=C(O)c1ccc2c(C3CCCCC3)c3n(c2c1)CC(C(=O)N1CCC(N2CCCCC2=O)CC1)Cc1ccccc1-3 (centres unmarked),10 to 1000,70 to 1000
CS(=O)(=O)NC(=O)c1ccc2c(C3CCCCC3)c3n(c2c1)CC(C(=O)N1CCC(N2CCCC2=O)CC1)=Cc1ccccc1-3,10 to 1000,1000 to 10000
CN(C)S(=O)(=O)NC(=O)c1ccc2c(C3CCCCC3)c3n(c2c1)CC(C(=O)N1CCC(N2CCCCC2=O)CC1)Cc1ccccc1-3 (centres unmarked),10 to 1000,70 to 1000
CN(C)S(=O)(=O)NC(=O)c1ccc2c(C3CCCCC3)c3n(c2c1)CC(C(=O)N1CCC(C(=O)N2CCCC2)CC1)=Cc1ccccc1-3,10 to 1000,70 to 1000
CN(C)S(=O)(=O)NC(=O)c1ccc2c(C3CCCCC3)c3n(c2c1)CC(C(=O)N1CCC(n2ccnn2)CC1)=Cc1ccccc1-3,10 to 1000,70 to 1000
CN(C)S(=O)(=O)NC(=O)c1ccc2c(C3CCCCC3)c3n(c2c1)CC(C(=O)N1CCC(N2CCOCC2)CC1)Cc1ccccc1-3 (centres unmarked),10 to 1000,70 to 1000
COC(=O)c1ccc2c(C3CCCCC3)c3n(c2c1)CC(C(=O)N1CCC(N2CCOCC2)CC1)=Cc1cc(OC)ccc1-3,> 1000,1000 to 10000
CCN(CC)C(=O)C1CCCN(C(=O)C2=Cc3ccccc3-c3c(C4CCCCC4)c4ccc(C(=O)NS(=O)(=O)N(C)C)cc4n3C2)C1 (centres unmarked),10 to 1000,70 to 1000
O=C(O)c1ccc2c(C3CCCCC3)c3n(c2c1)CC(C(=O)N1CCC(N2CCOCC2)CC1)=Cc1ccc(Cl)cc1-3,> 1000,1000 to 10000
COc1ccc2c(c1)C=C(C(=O)N1CCC(N3CCOCC3)CC1)Cn1c-2c(C2CCCCC2)c2ccc(C(=O)O)cc21,10 to 1000,70 to 1000
CN(C)S(=O)(=O)NC(=O)c1ccc2c(C3CCCCC3)c3n(c2c1)CC(C(=O)N1CCC(N(C2CC2)S(=O)(=O)c2ccccc2)CC1)=Cc1ccccc1-3,10 to 1000,70 to 1000
CN(C)S(=O)(=O)NC(=O)c1ccc2c(C3CCCCC3)c3n(c2c1)CC(C(=O)N1CCC(N2CCC(F)(F)CC2)CC1)=Cc1ccccc1-3,10 to 1000,70 to 1000
CN(C)S(=O)(=O)NC(=O)c1ccc2c(C3CCCCC3)c3n(c2c1)CC(C(=O)N1CCC(F)(F)CC1)=Cc1ccccc1-3,10 to 1000,70 to 1000
CN(C)S(=O)(=O)NC(=O)c1ccc2c(C3CCCCC3)c3n(c2c1)CC(C(=O)N1CCCC(F)(F)C1)=Cc1ccccc1-3,10 to 1000,70 to 1000
COc1ccc2c(c1)C=C(C(=O)N1CCC(N3CCOCC3)CC1)Cn1c-2c(C2CCCCC2)c2ccc(C(=O)NS(=O)(=O)N(C)C)cc21,10 to 1000,70 to 1000
CN(C)S(=O)(=O)NC(=O)c1ccc2c(C3CCCCC3)c3n(c2c1)CC(C(=O)N1CCC(N2CCOCC2)CC1)=Cc1ccc(Cl)cc1-3,> 1000,1000 to 10000
COC(=O)c1ccc2c(C3CCCCC3)c3n(c2c1)CC(NC(=O)N1CCC(N2CCOCC2)CC1)Cc1ccccc1-3 (centres unmarked),10 to 1000,> 120
O=C(O)c1ccc2c(C3CCCCC3)c3n(c2c1)CC(NC(=O)N1CCC(N2CCOCC2)CC1)Cc1ccccc1-3 (centres unmarked),10 to 1000,70 to 1000
